# Reference: ChEMBL document CHEMBL5614376, “Discovery of MT-1207: A Novel, Potent Multitarget Inhibitor as a Promising Clinical Candidate for the Treatment of Hypertension” (J Med Chem, 2024)
# The source made the active and inactive calls. The calls are words filed in the database; no cut-off is given here.
# Key:
# [1] = Cmax in Sprague-Dawley rat at 1 mg/kg, iv measured for 24 hrs by UPLC/MS/MS analysis; format: ADME, organism-based; conditions: in vivo
# [2] = Toxicity in male Sprague-Dawley rat assessed as reduction in body weight at 30 mg/kg, po qd treated for 11 days consecutively; format: organism-based; parameters: scale not given: the % may be the effect or the level left; conditions: in vivo, 264 h, time 11 day
# [3] = AUC (0 to t) in female Sprague-Dawley rat at 30 mg/kg, po qd treated for 13 weeks consecutively measured after recovery period on day 91 by UP/LC/MS/MS analysis; format: ADME, organism-based; conditions: in vivo, time 91 day
# [4] = Cmax in female Sprague-Dawley rat at 10 mg/kg, po qd treated for 13 weeks consecutively measured after recovery period on day 91 by UP/LC/MS/MS analysis; format: ADME, organism-based; conditions: in vivo, time 91 day
# Rattus norvegicus [5] = assay: Effect on postural hypotension in Sprague-Dawley rat assessed as change in systolic blood pressure at 5 mg/kg, po treated for >30 mins followed by induction of postural hypotension measured 40 secs after postural change (reference value: 128 +/- 11 mmHg); format: functional; conditions: time > 30.67 min, 0.5112 h
# [6] = Cmax in female Sprague-Dawley rat at 10 mg/kg, po measured on day 1 by UP/LC/MS/MS analysis; format: ADME, organism-based; conditions: in vivo, time 1 day
# [7] = Cmax in Sprague-Dawley rat at 9 mg/kg, po measured for 24 hrs by UPLC/MS/MS analysis; format: ADME, organism-based; conditions: in vivo
# [8] = AUC (0 to t) in Sprague-Dawley rat at 1 mg/kg, iv measured for 24 hrs by UPLC/MS/MS analysis; format: ADME, organism-based; conditions: in vivo
# [9] = AUC (0 to t) in male Sprague-Dawley rat at 30 mg/kg, po measured on day 1 by UP/LC/MS/MS analysis; format: ADME, organism-based; conditions: in vivo, time 1 day
# [10] = Metabolic stability in human plasma assessed as enzymatic hydrolysis at 50 to 10000 ng/ml incubated upto 120 mins; format: ADME, cell-free; conditions: 2 h, dose 50-10000 ng/ml
# [11] = Tmax in female Sprague-Dawley rat at 10 mg/kg, po qd treated for 13 weeks consecutively measured after recovery period on day 91 by UP/LC/MS/MS analysis; format: ADME, organism-based; conditions: in vivo, time 91 day
# [12] = Cmax in male Sprague-Dawley rat at 10 mg/kg, po measured on day 1 by UP/LC/MS/MS analysis; format: ADME, organism-based; conditions: in vivo, time 1 day
# [13] = Oral bioavailability in Sprague-Dawley rat at 3 mg/kg measured for 24 hrs by UPLC/MS/MS analysis; format: ADME, organism-based; conditions: in vivo
# [14] = AUC (0 to t) in male Sprague-Dawley rat at 10 mg/kg, po measured on day 1 by UP/LC/MS/MS analysis; format: ADME, organism-based; conditions: in vivo, time 1 day
# [15] = AUC (0 to t) in Sprague-Dawley rat at 3 mg/kg, po measured for 24 hrs by UPLC/MS/MS analysis; format: ADME, organism-based; conditions: in vivo
# [16] = Toxicity in male Sprague-Dawley rat assessed as change in body weight at 30 mg/kg, po qd treated for 13 weeks consecutively measured post-cessation of treatment; format: organism-based; conditions: in vivo, 2184 h
# [17] = Tmax in male Sprague-Dawley rat at 30 mg/kg, po measured on day 1 by UP/LC/MS/MS analysis; format: ADME, organism-based; conditions: in vivo, time 1 day
# Rattus norvegicus [18] = assay: Effect on serum urea level in 2K2C renovascular hypertensive Sprague-Dawley rat model at 10 mg/kg, po measured after 9 weeks by biochemical analysis; format: functional, organism-based
# [19] = Plasma protein binding in Beagle dog at 1 uM incubated for 30 mins; format: ADME, cell-free, Canis lupus familiaris; conditions: read-out: PPB (converted)
# [20] = Metabolic stability in rat liver microsomes assessed as compound remaining at 10 umol/L incubated upto 120 mins in presence of NADPH by LC-MS/MS analysis; format: ADME, Microsome; conditions: dose 10 µmol/L, read-out: Stability
# [21] = Oral bioavailability in Sprague-Dawley rat at 9 mg/kg measured for 24 hrs by UPLC/MS/MS analysis; format: ADME, organism-based; conditions: in vivo
# [22] = Cmax in Sprague-Dawley rat at 1 mg/kg, po measured for 24 hrs by UPLC/MS/MS analysis; format: ADME, organism-based; conditions: in vivo
# [23] = Tmax in female Sprague-Dawley rat at 10 mg/kg, po measured on day 1 by UP/LC/MS/MS analysis; format: ADME, organism-based; conditions: in vivo, time 1 day
# [24] = AUC (0 to t) in female Sprague-Dawley rat at 10 mg/kg, po qd treated for 13 weeks consecutively measured after recovery period on day 91 by UP/LC/MS/MS analysis; format: ADME, organism-based; conditions: in vivo, time 91 day
# [25] = Metabolic stability in Beagle dog plasma assessed as enzymatic hydrolysis at 50 to 10000 ng/ml incubated upto 120 mins; format: ADME, cell-free, Canis lupus familiaris; conditions: 2 h, dose 50-10000 ng/ml
# [26] = Tmax in Sprague-Dawley rat at 3 mg/kg, po measured for 24 hrs by UPLC/MS/MS analysis; format: ADME, organism-based; conditions: in vivo
# [27] = Half life in Sprague-Dawley rat at 9 mg/kg, po measured for 24 hrs by UPLC/MS/MS analysis; format: ADME, organism-based; conditions: in vivo
# [28] = Cmax in female Sprague-Dawley rat at 30 mg/kg, po measured on day 1 by UP/LC/MS/MS analysis; format: ADME, organism-based; conditions: in vivo, time 1 day
# [29] = Metabolic stability in rat liver microsomes assessed as drug metabolism at 10 umol/L incubated upto 120 mins in presence of NADPH by LC-MS/MS analysis; format: ADME, Microsome; conditions: 2 h, 10 µM, dose 10 µmol/L
# [30] = Cmax in female Sprague-Dawley rat at 100 mg/kg, po qd treated for 13 weeks consecutively measured after recovery period on day 91 by UP/LC/MS/MS analysis; format: ADME, organism-based; conditions: in vivo, time 91 day
# [31] = Tmax in female Sprague-Dawley rat at 30 mg/kg, po qd treated for 13 weeks consecutively measured after recovery period on day 91 by UP/LC/MS/MS analysis; format: ADME, organism-based; conditions: in vivo, time 91 day
compound,measurement,setting,value
Cl.c1ccc2c(c1)nnn2CCCCN1CCN(c2nsc3ccccc23)CC1,Cmax,[1],468 ng/mL
same,Activity,[2],~ 3.3%
same,AUC(0-t) at 2184 h,[3],1470 ng·h/mL
same,Cmax,[4],140 ng/mL
same,Activity,Rattus norvegicus [5],83 mmHg
same,Cmax,[6],88.7 ng/mL
same,Cmax,[7],186 ng/mL
same,AUC(0-t) at 24 h,[8],440 ng·h/mL
same,AUC(0-t) at 24 h,[9],318 ng·h/mL
same,Stability,[10],Stable
same,Tmax,[11],1 h
same,Cmax,[12],19.2 ng/mL
same,bioavailability,[13],31.9%
same,AUC(0-t) at 24 h,[14],44.5 ng·h/mL
same,AUC(0-t) at 24 h,[15],421 ng·h/mL
same,Activity,[16],Non-Toxic
same,Tmax,[17],1 h
same,Activity,Rattus norvegicus [18],Active
same,"fraction unbound at 0.5 h, 1 µM",[19],0.006
same,"remaining at 2 h, 10 µM",[20],21.1%
same,bioavailability,[21],15.3%
same,Cmax,[22],33.3 ng/mL
same,Tmax,[23],1.3 h
same,AUC(0-t) at 2184 h,[24],439 ng·h/mL
same,Stability,[25],Stable
same,Tmax,[26],2 h
same,half-life,[27],1.89 h
same,Cmax,[28],408 ng/mL
same,Drug metabolism,[29],Metabolite_Detected
same,Cmax,[30],745 ng/mL
same,Tmax,[31],1 h
